Patent US20070066682A1, “Arylalkylamine vanadium (V) salts for the treatment and/or prevention of Diabetes mellitus” (priority 2005, published 2007)
“Also recorded” adds a separate entry of the source.

Assays:
[1] = tested on: db/db mice; assay: Chronic treatment of obese diabetic db/db mice, glycemia; format: in vivo, mouse
Procedure: (§1) Male Wistar rats weighting 180-220 g were purchased from Harlan (Interfauna Ibèrica S.A., Spain). Diabetes was induced by a single intraperitoneal injection of a freshly prepared solution of streptozotocin (in some studies the dose was 45 mg/kg body weight and in some others 100 mg/kg body weight dissolved in 50 mM citrate buffer, pH 4.5). Only diabetic animals with glycemia above 300 mg/dl were used. The animals were housed in animal quarters at 22° C., with a 12 h light/12 h dark cycle and were fed ad libitum. All procedures used were approved by the animal ethical committee of the University of Barcelona, Spain. Male mice C57 BL/Ks bearing the db/db mutation (Jackson Laboratories, Bar Harbor, Me.) were purchased from Harlan France (Gannat, France). C57BL/6J male mice were assigned for 16 weeks to very high-fat diet containing (in kcal): 72% from fat, 28% from proteins and <1% from carbohydrates (Burcelin et al., 2002, Am. J. Physiol. Endocrinol. Metab 282: E834-E842).

[2] = tested on: streptozotocin-induced diabetic rats; assay: Chronic subcutaneous (osmotic minipump) treatment of streptozotocin (45 mg/kg) diabetic rats, glycemia; format: in vivo, rat; conditions: for glycemia during chronic subcutaneous treatment: 2.5 μmol/kg/day by osmotic minipumps, about two weeks, STZ 45 mg/kg rats, dihydrate
Procedure: as §1
Osmotic minipumps delivering B6V10 (2.5 μmol/kg body wt/day) or decavanadate (2.5 μmol/kg body wt/day) were implanted subcutaneously in diabetic rats anaesthetised by ketamine hydrochloride (95 mg/kg) and xylasine (10 mg/kg). […] Glycemia was measured on arterio-venous blood collected from the tail vessels at 09:00 am for two weeks, before the administration of vanadate. Insulin concentrations were determined before and after treatment. In another set of experiments, B6V10 was orally administered at a single dose of 5 μmol/kg/day during the first week and 10 μmol/kg/day during 2 additional weeks by gastric gavage. A control group received the corresponding decavanadate salt in the absence of benzylamine. At the end of the treatment, animals were sacrificed and the liver, fat pad, heart and lung were kept at −80° C. and the plasma at −20° C. until their use for in vitro analysis.
(§2) In glucose tolerance tests and in chronic treatments, circulating glucose concentrations were determined by a rapid glucose analyser (Accutrend® Sensor Comfort, Roche, Basel. Switzerland). Plasma insulin (IRI) concentration was determined by ELISA method using a kit obtained from Crystal Chem Inc. (Downers Grove, Ill.). Plasma triglycerides (Biosystems, Barcelona, Spain) and NEFAS (Wako Chemicals, Neuss, Germany) were determined with standard […] methods.
The effect of chronic administration of hexaquis(benzylammonium) decavanadate on glycemia from diabetic rats was determined. Thus, diabetes was induced in rats by intravenous administration of streptozotocin, which destroys the β-pancreatic cells that produce insulin.
Chronic in vivo efficacy of B6V10 was evaluated in streptozotocin-induced diabetic rats and in db/db mice. Streptozotocin-induced (45 mg/kg) diabetic rats were subcutaneously treated with hexaquis(benzylammonium) decavanadate (2.5 μmol/kg) (B6V10, solid squares, FIG. 8A) or with decavanadate (2.5 μmol/kg) (V10, open circles, FIG. 8A) delivered subcutaneously by osmotic minipumps implanted in the dorsal region. Diabetic rats were also sham-operated (untreated, solid diamonds, FIG. 8A). […] These experiments were repeated using an oral administration protocol. Streptozotocin-induced (45 mg/kg) diabetic rats were orally treated with hexaquis(benzylammonium) decavanadate (5 μmol/kg from day 0 to day 7 and 10 μmol/kg/day from day 7 to day 17) (B6V10, solid squares, FIG. 8B) or received decavanadate (10 μmol/kg) (V10, open circles, FIG. 8B). […]

[3] = tested on: insulin receptor; assay: Tyrosine phosphorylation of insulin receptor in isolated rat adipocytes; format: cell-based; conditions: 25 μM
Procedure: Isolated fat cells were disrupted for total membrane preparation by hypo-osmotic lysis in a 20 mM HES buffer and an antiprotease and antiphosphatase cocktail as reported by Abella et al. (2003, Diabetes 52: 1004-1013). Protein concentrations were determined by the Bradford method (Bradford, 1976, Anal. Biochem. 72: 248-254) with gamma-globulin as protein concentration standard. Immunoprecipitation and immunoblot assays were performed as previously described by Abella et al. (2004, Id.) with the use of a monoclonal antiphosphotyrosine antibody for the immunoprecipitation and an anti-insulin receptor antibody for immunoblotting, respectively. SDS-polyacrylamide gel electrophoresis was performed on membrane proteins following conventional procedures. Proteins were transferred to Immobilon and immunoblotting was performed as reported by Castello et al. (1994, J. Biol. Chem. 269: 5905-5912).
The mechanism of action of B6V10 was investigated in isolated rat adipocytes. Adipose cells from Wistar rats were incubated for different times in the presence of 25 μM hexaquis(benzylammonium) decavanadate (B6V10). […] Subsequently, 2-deoxyglucose uptake (results shown in FIG. 7A), tyrosine phosphorylation of insulin receptor (FIG. 7B), phospho-Thr^308-protein kinase B (FIG. 7C) and phospho-Ser^473-protein kinase B (FIG. 7D) was measured. […]

[4] = Tolerability in treated animals; format: in vivo
[5] = tested on: adipocyte lipolysis; assay: Adipocyte lipolysis; format: cell-based
[6] = tested on: mice made glucose intolerant by a high fat diet; assay: Glucose tolerance and plasma insulin in high-fat fed mice, acute administration; format: in vivo, mouse; conditions: dihydrate
Procedure: Male Wistar rats weighting 180-220 g were purchased from Harlan (Interfauna Ibèrica S.A., Spain). Diabetes was induced by a single intraperitoneal injection of a freshly prepared solution of streptozotocin (in some studies the dose was 45 mg/kg body weight and in some others 100 mg/kg body weight dissolved in 50 mM citrate buffer, pH 4.5). Only diabetic animals with glycemia above 300 mg/dl were used. The animals were housed in animal quarters at 22° C., with a 12 h light/12 h dark cycle and were fed ad libitum. All procedures used were approved by the animal ethical committee of the University of Barcelona, Spain. […]
as §2
Insulin and glucose responses during the glucose tolerance test were calculated as the incremental plasma values integrated over a period of 120 min after injection of glucose. […] Data distribution was analyzed by the Kolmogorov-Smirnov test. […]

[7] = tested on: streptozotocin-induced diabetic rat with undetectable circulating insulin; assay: Subcutaneous treatment of streptozotocin (100 mg/kg) diabetic rats with undetectable circulating insulin; format: in vivo
Procedure: as §1, §2
To this end, rats were made diabetic by the injection of a large dose of streptozotocin (100 mg/kg) that eliminates β-pancreatic insulin content. […] These streptozotocin-induced diabetic rats were subcutaneously treated with B6V10 (2.5 μmol/kg) (solid squares, FIG. 9A) delivered by osmotic minipumps or left untreated (solid circles, FIG. 9A). Sham-operated nondiabetic rats were also untreated (solid triangles, FIG. 9A).
The concentration of circulating glucose under these conditions was also assayed. After 28 days of treating diabetic rats with hexaquis(benzylammonium) decavanadate (2.5 μmol/kg) (wide striped bars, FIG. 9B), or with decavanadate (close striped bars, FIG. 9B) delivered by osmotic minipumps, plasma insulin and glucose were measured. Untreated diabetic (solid bars, FIG. 9B) or nondiabetic rats (open bars, FIG. 9B) were similarly assayed as controls.

Question: Which results are given for “hexaquis(benzylammonium) decavanadate (V) dihydrate [Entry B6V10]”?
Answer: glycemia [1]: ameliorated glycemia; glycemia during chronic subcutaneous treatment [2]: ameliorated hyperglycemia; also recorded: significant correction of hyperglycemia; also recorded: significant differences in the B6V10 group compared to the untreated group from day 8 of treatment; glycemia during chronic subcutaneous treatment ([2]; listed as hexaquis(benzylammonium) decavanadate): rapid reduction of the hyperglycemia that was detected after only four days of treatment; glucose transport of adipocytes isolated from treated rats ([2]; fourteen days of treatment, basal conditions): increased glucose transport under basal conditions equivalent to that seen in the presence of insulin; tyrosine phosphorylation of insulin receptors [3]: undetectable; toxicological side effects ([4]; at the doses used): did not show toxicological side effects; hypoglycemia ([4]; treated animals): did not cause hypoglycemia; adipocyte lipolysis [5]: inhibited adipocyte lipolysis; glucose tolerance and plasma insulin levels [6]: ameliorated the pattern of plasma insulin levels; also recorded: amelioration of glucose tolerance and improved plasma insulin levels; glycemia in diabetic rats with undetectable insulin ([7]; 2.5 μmol/kg subcutaneous minipumps, STZ 100 mg/kg, dihydrate): markedly effective in lowering hyperglycemia; also recorded: reducing glycemia; also recorded: significant differences between the B6V10 and the untreated groups; also recorded: antidiabetic effects; plasma glucose and insulin after 28 days of treatment ([7]; 2.5 μmol/kg, osmotic minipumps, STZ 100 mg/kg): plasma glucose was reduced even without any observable change in the amount of insulin; body weight or organ weights ([7]; chronic treatment with therapeutic doses): did not affect body weight or organ weights
